Reference: US11406631B2, “Hydrazone derivatives for preventing or treating EBV-related cancers” (Universite de Bretagne Occidentale, priority 2018, dated 2022)

Columns and labels:
[1] = tested on: GAr-based inhibition of translation; assay: Yeast assay (assays described in Lista et al.); assay type: cell-based, Saccharomyces cerevisiae
Text: A yeast-based (Saccharomyces cerevisiae) assay that recapitulates all the aspects of the GAr-based inhibition of translation, including the GAr-length dependency, has been developed, that allowed understanding the mechanisms of GAr-mediated mRNA translation—suppression in cis, as well as the cellular factors involved (Lista et al. Biotechnol J 2015, 10, 1670-1681). This assay was successfully used to identify small molecular weight compounds that can stimulate EBNA1 expression both in yeast and mammalian cells and that relieve GAr-based limitation of antigen presentation (Voisset et al. Dis Model Mech 2014, 7, 435-444).
Compounds 1a, 2a, 4a, 5a, 7a, 10a and 11a were also tested in the various assay described in Lista et al. (Nat Commun 2017, 8, 16043).

[2] = tested on: quadruplex RNA F-EBNA1-T; assay: FRET-melting assay; assay type: binding, Epstein-Barr virus
Text: The FRET-melting assay is based on thermal denaturation of G4-ARN monitored by fluorescence due to the phenomenon of Förster Resonance Energy Transfer (FRET). This method uses quadruplex-forming RNA sequence dual-labeled with two different fluorophores: a donor (fluorescein, or FAM) and an acceptor (tetramethylrhodamine, or TAMRA). When RNA is folded into G-quadruplex (G4) structure, fluorescence of the donor fluorophore is weak due to strong energy transfer (FRET) to the neighboring acceptor fluorophore. Upon thermal denaturation, the quadruplex unfolds and the fluorophores are separated, leading to decrease of the FRET effect and increase of the fluorescence of the donor (see FIG. 2). By following the fluorescence of the donor as a function of temperature, a melting curve of the G-quadruplex RNA can be obtained, which allows determining the temperature of denaturation at which 50% of the quadruples is unfolded (T1, FIG. 3).
The FRET-melting assay allows assessing the affinity of small molecules (ligands) for the G4-RNA. The addition of a G4-ligand stabilizes the G-quadruplex structure and increases the denaturation temperature. The temperature of denaturation in the presence of ligands (T2) can be compared with that obtained in the absence of ligands (T1). The value of ΔTm (ΔTm=T2−T1) represents a measure of the affinity of the compounds of the invention (ligand). Generally, values of ΔTm>20° C. correspond to ligands of high affinity.
The dual-labeled oligoribonucleotide EBNA1 [5′-FAM-r(GGGGCAGGAGCAGGAGGA)-TAMRA-3′] (SEQ ID no 2) purified by reversed-phase HPLC was purchased from Eurogentec. The donor fluorophore was 6-carboxyfluorescein (FAM) and the acceptor fluorophore was 6-carboxytetramethylrhodamine (TAMRA).
Stock solutions of the ligands (2 mM in DMSO) were used for FRET-melting assay, unless otherwise stated, and were stored at −20° C. FRET-melting measurements are performed on 7900HT Fast Real-Time PCR System (Applied Biosystems) with Microamp Fast optical 96-well reaction plate (Applied Biosystems).
Preparation of Oligonucleotides For FRET-melting assay, oligoribonucleotide F-EBNA1-T was dissolved in K^+10 buffer (10 mM lithium cacodylate buffer, pH 7.3, supplemented with 10 mM KCl and 90 mM LiCl).
Prior to use, all oligonucleotides were pre-treated by heating at 95° C. for 5 min, then rapidly cooled to 4° C. to favor the intramolecular folding by kinetic trapping. Duplex-DNA ds26 (5′CAA-TCG-GAT-CGA-ATT-CGA-TCC-GAT-TG-3′) (SEQ ID no 3) was prepared by heating this self-complementary strand at 90° C. for 5 min in K^+10 buffer followed by a slow cooling over 6 h.
FRET-melting assay is performed in 96-well plates on real time PCR apparatus 7900HT Fast Real-Time PCR System using the heating ramp as follow: 5 min at 25° C., then increase of 0.5° C. every minute until 95° C. Each experimental condition was tested in duplicated in a volume of 25 μL for each sample. The 96-well plates (Applied Biosystems) were prepared by aliquoting the annealed RNA (24 μL of 0.21 μM solution in K^+10 buffer) into each well, followed by 1 μL of ligand solution (25 μM in K^+10 buffer). For competition experiments, duplex competitors were added to 200 nM quadruplex sequences at final concentrations of 3.0 μM (15 eq) and 10.0 μM (50 eq), with a total reaction volume of 25 μL, with the labeled oligoribonucleotide (0.2 μM) and the ligand (1.0 μM). Measurements were made with excitation at 492 nm and detection at 516 nm. The change in the melting temperature in the presence of 1.0 μM putative ligand, ΔTm (1.0 μM), was calculated from at least two experiments by subtraction of the blank from the averaged melting temperature of each compound (1.0 μM).
The results are shown in FIG. 4 and in Table 2 below (higher ΔTm values indicate higher affinity of the compounds to G4-RNA structure of EBNA1).

[3] = biological target: G4-RNA EBNA1; assay: HT-G4-FID assay: Thiazole Orange displacement from G4-RNA; assay type: binding, Epstein-Barr virus
Procedure: This assay is based on the displacement of a fluorescent indicator (Thiazole Orange, hereinafter TO) from a G4-RNA structure (RNA G-quadruplex of EBNA1) by a putative ligand such as the compounds of the invention (see FIG. 1). This displacement is quantified as % TO displacement. The percentage of TO displacement is calculated from the fluorescence intensity (F) in the presence of a putative ligand, using:
[formula] where F0 is fluorescence intensity of the probe (TO) bound to RNA without added ligand. The percentage of displacement is then plotted as a function of the concentration of added ligand. The RNA affinity of putative ligands is evaluated using the concentration of a ligand required to decrease the fluorescence of the probe by 50% (noted DC50), which is determined graphically from non-linear fitting of the displacement curve. […] 2. Materials and Reagents
Thiazole Orange (TO) and cacodylic acid were purchased from Aldrich and used without further purification. The oligoribonucleotide EBNA1 [5′-r(GGGGCAGGAGCAGGAGGA)-3′] (SEQ ID no 1) purified by reversed-phase HPLC was purchased from Eurogentec.
Stock solutions of the ligands (2 mM in DMSO (dimethylsulfoxyde)) were used for G4-FID assay, unless otherwise stated, and were stored at −20° C. Stock solutions of TO (2 mM in DMSO) were used for G4-FID assay. Fluorescent probe powders and solutions were stored and used, protected from light and used as aliquots to avoid freeze-thaw cycles. HT-G4-FID measurements were performed on a FLUOstar Omega microplate reader (BMG Labtech) with 96-well Non-Binding Surface black with black bottom polystyrene microplates (Corning ref 3650).
For HT-G4-FID assay, the oligonucleotide was dissolved in K^+−100-buffer (10 mM lithium cacodylate, pH 7.3, 100 mM KCl, 1 mM EDTA, 1% DMSO). Oligonucleotide concentrations were determined on the basis of their absorbance at 260 nm. Prior to use, the oligonucleotide was pre-treated by heating at 95° C. for 5 min followed by a slow cooling to 25° C.
Each G4-FID assay is performed in a 96-well microplates. […] The microplate is filled with (a) K^+−100 solution (qs for 200 μL) (b) 10 μL of a solution of pre-folded oligonucleotides (5 μM) and TO (10 μM-2 eq) and (c) an extemporaneously prepared 5 μM ligand solution in K^+−100 buffer (0 to 100 μL along the line of the microplate, i.e., from column […]: 0, 0.125, 0.25, 0.375, 0.5, 0.625, 0.75, 1.0, 1.25, 1.5, 2.0 and 2.5 μM) (see Largy et al., Anal Bioanal Chem 2011, 400, 34193427). After 5 min of orbital shaking at 500 rpm, fluorescence intensity is measured using the following experimental parameters: positioning delay: 0.5 s, 20 flashes per well, emission/excitation filters (nm): 485/520, gain adjusted at 80% of the fluorescence from the most fluorescent well (i.e., a well from column A).
Results are shown in Table 1 below (lower DC50 values indicate higher affinity of compounds to the G4-RNA structure of EBNA1).

[4] = tested on: interaction between NCL and the G4s of EBNA1 mRNA; settings: earlier study, Lista et al. Nat Commun 2017; cited from earlier work

C[n+]1ccc(C=NNC(=O)c2cc(C(=O)NN=Cc3cc[n+](C)cc3)ncn2)cc1.[I-].[I-] [Compound 4a, N′^4,N′^6-Bis[(1-methylpyridinium-4-yl)methylene]pyrimidine-4,6-dicarbohydrazide iodide]
result in the yeast assay [1]: positive results

C[n+]1ccc(C=NNC(=O)c2cc(C(=O)NN=Cc3cc[n+](C)c4ccccc34)ncn2)c2ccccc21.[I-].[I-] [Compound 5a, N′^4,N′^6-Bis[(1-methylquinolinium-4-yl)methylene]pyrimidine-4,6-dicarbohydrazide iodide]
result in the yeast assay [1]: positive results

C[n+]1ccc(C=NNC(=O)c2ccc3ccc(C(=O)NN=Cc4cc[n+](C)cc4)nc3n2)cc1.[I-].[I-] [Compound 7a, N′^2,N′^7-Bis[(1-methylpyridinium-4-yl)methylene]-1,8-naphthyridine-2,7-dicarbohydrazide iodide]
result in the yeast assay [1]: positive results

C[n+]1ccc(C=NNC(=O)c2ccc3ccc4ccc(C(=O)NN=Cc5cc[n+](C)cc5)nc4c3n2)cc1.[I-].[I-] [Compound 10a, N′^2,N′^9-Bis[(1-methylpyridinium-4-yl)methylene]-1,10-phenanthroline-2,9-dicarbohydrazide iodide]
ΔTm, ligand + 3 μM ds26 ([2]; F-EBNA1-T 0.2 μM, ligand 1.0 μM, K+10 buffer, competitor DNA ds26 3 μM (15 eq)): 15.0 ± 0.6 °C | ΔTm, ligand + 10 μM ds26 ([2]; F-EBNA1-T 0.2 μM, ligand 1.0 μM, K+10 buffer, competitor DNA ds26 10 μM (50 eq)): 12.5 ± 1.5 °C | ΔTm, ligand alone ([2]; F-EBNA1-T 0.2 μM, ligand 1.0 μM, K+10 buffer, no competitor): 15.7 ± 0.6 °C | affinity for the G-quadruplex structure of EBNA1 (in words, FRET-melting data) ([2]; conclusion from Table 2): particularly high affinity | DC50 ([3]; K+-100 buffer, pH 7.3, triplicate assays): 320 ± 20 nM | affinity for the G-quadruplex structure of EBNA1 (in words, FID data) ([3]; conclusion from Table 1): particularly high affinity | result in the yeast assay [1]: positive results

C[n+]1cc(NC(=O)c2ccc3ccc4ccc(C(=O)Nc5cc6ccccc6[n+](C)c5)nc4c3n2)cc2ccccc21 [PhenDC3]
NCL-EBNA1 mRNA G-quadruplex interaction by PLA [4]: prevented
